Measured values reported in article PMC9029893 (International Journal of Molecular Sciences, 2022).

Key:
HUVEC cells [1] = test: WST-1 cell viability assay, HUVEC; details: for Decrease of HUVECs viability (growth inhibition): 0.3 mM, vs control; for IC50: Homo sapiens, HUVEC, 24 h, read-out: Viability-IC50, HUVEC cells
Protocol: (§1) HUVEC and AoSMC viability were tested using the WST-1 cell viability assay (Takara Bio Europe, Saint-Germain-en-Laye, France). […] Briefly, HUVEC and AoSMC were seeded at densities of 7500 and 5000 cells per well on 96-well plates. The cells were cultivated for up to 24 h to achieve 70% confluency, and subsequently treated with tested compounds diluted in medium (1 + 9; v = 100 μL) or pure medium (control). The plates were incubated at 37 °C (5% CO2) for the next 24 h. Then, the cells were rinsed with 100 μL culture medium, and WST-1 reagent diluted in medium (100 μL) was added; the plates were then incubated again (37 °C, 5% CO2) for another 90 min. The absorbance was measured at 450 nm (iMARK, Bio-Rad, Hercules, CA, USA). The experiments were performed in multiplicate (n = 8) and the results were presented as mean ± SD. The cell viability was expressed as a percentage of the control samples, which constituted 100% viability. […] The variability coefficient of the method was estimated (CV(HUVEC) = 8.94%, n = 8; CV(AoSMC) = 5.84%, n = 10).

[2] = WST-1 cell viability assay, HUVEC; details: human, HUVEC cells
Protocol: as §1

[3] = WST-1 cell viability assay, AoSMC; details: human, AoSMC cells
Protocol: as §1

HUVEC cells [4] = test: HUVEC integrity in RTCA-DP system (normalized cell index); assay type: cell-based, human
Protocol: The effects of sulfonamides 1–8 on the integrity and barrier properties of HUVEC were examined in real-time using a cell electric impedance monitoring system (Real-Time Cell Analyzer; Roche & ACEA Biosciences, Santa Clara, CA, USA), which is based on tracking electrical impedance signals. Any changes in cell status, adhesion, and morphology are expressed by parameter Cell Index (CI). The experimental protocol has been described previously. Briefly, the cells were seeded at a density of 15,000 cells per well on E-16 plates (Roche & ACEA Biosciences, Santa Clara, CA, USA), and cultured until the cells achieved plateau phase. Then, the medium was discarded from each well, and the solutions of the test compounds dissolved in cell culturing medium (100 μL) or pure medium (100 μL, control) were added. The measurements were then carried out for 48 h. The results are presented as mean ± SD of ‘normalized cell index’ (nCI), which is calculated by the division of a CI value at a certain time point by the CI value at a reference time point. The experiments were conducted in multiplicate (n = 4–6). The method was validated and the coefficient of variability (CV) was calculated as 9.17%–15.2%, depending on the measured time point (n = 6).

factor X = molecular target: T1, factor X (Homo sapiens, UniProt P00742); test: Factor X activity; assay type: biochemical
T1 construct: 50 µL of four-fold diluted PPP, 50 μL of deficient plasma factor X, 10 μL of the examined compound; from tissue; host or cells: platelet-poor plasma (PPP), mixed with factor X-depleted plasma (Bio-Ksel)
T1 sequence (P00742 41-488): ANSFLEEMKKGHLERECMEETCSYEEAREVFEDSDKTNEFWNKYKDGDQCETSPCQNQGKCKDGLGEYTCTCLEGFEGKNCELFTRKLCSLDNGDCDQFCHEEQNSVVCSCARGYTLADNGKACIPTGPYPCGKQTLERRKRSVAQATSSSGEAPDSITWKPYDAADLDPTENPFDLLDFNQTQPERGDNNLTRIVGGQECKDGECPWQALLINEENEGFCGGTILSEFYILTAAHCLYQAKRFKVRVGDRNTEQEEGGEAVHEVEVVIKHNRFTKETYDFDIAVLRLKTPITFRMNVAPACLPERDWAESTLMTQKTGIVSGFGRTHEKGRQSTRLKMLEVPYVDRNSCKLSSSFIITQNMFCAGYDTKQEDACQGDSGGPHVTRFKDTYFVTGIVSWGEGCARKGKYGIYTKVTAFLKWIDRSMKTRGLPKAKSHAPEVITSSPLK
Protocol: The activity of FX was measured optically using deficient plasma factor X [75]. The content of each sample was as follows: 50 µL of four-fold diluted PPP, 50 μL of deficient plasma factor X, 10 μL of the examined compound, and 100 µL PT reagent. The control samples contained 10 μL of distilled water and methanol (1:1). The measurement of PT time was recorded using a CoagChrom-3003 coagulometer (Bio-Ksel, Grudziadz, Poland). The activity of factor X was counted using a calibration curve (R^2 = 0.999) performed on a calibrator diluted in the range 1:5–1:80 [76]. The variation in plasma coagulation time is proportional to the concentration and activity of factor X in the patient plasma treated with the tested compounds. The coefficient of variability for the method was calculated as CV = 1.80%. The reference values for factor X activity ranged from 77–131%.

AoSMC cells = test: WST-1 cell viability assay, AoSMC; details: Homo sapiens, 24 h, read-out: Viability-IC50, AoSMC cells
Protocol: as §1

Compound	Decrease of HUVECs viability (growth inhibition) (HUVEC cells [1])	IC50 (HUVEC cells [1]) [mM]	viability at 24 h, 0.06 mM [2] [%]	viability at 24 h, 0.3 mM [2] [%]	viability at 24 h, 3 mM [3] [%]	normalized Cell Index (nCI) (HUVEC cells [4]; 0.3 mM, 3 hours)	normalized Cell Index (nCI) (HUVEC cells [4]; 0.3 mM, 6 hours)	normalized Cell Index (nCI) (HUVEC cells [4]; 0.3 mM, 12 hours)	normalized Cell Index (nCI) (HUVEC cells [4]; 0.3 mM, 24 hours)	normalized Cell Index (nCI) (HUVEC cells [4]; 0.3 mM, 36 hours)	normalized Cell Index (nCI) (HUVEC cells [4]; 1.0 mM, 3 hours)	normalized Cell Index (nCI) (HUVEC cells [4]; 1.0 mM, 6 hours)	normalized Cell Index (nCI) (HUVEC cells [4]; 1.0 mM, 12 hours)	normalized Cell Index (nCI) (HUVEC cells [4]; 1.0 mM, 24 hours)	normalized Cell Index (nCI) (HUVEC cells [4]; 1.0 mM, 36 hours)	Factor X activity (factor X; 0.3 mM) [%]	Factor X activity (factor X; 0.6 mM) [%]	Factor X activity (factor X; 1.5 mM) [%]	also measured
CCCCS(=O)(=O)NC(N)=NC(=N)N(C)C [Compound 1]	approximately 28.96%	3.64 ± 0.26	76.3 ± 9.19	71 ± 8.45	> 59	0.832 ± 0.091	0.981 ± 0.085	1.177 ± 0.149	1.207 ± 0.149	0.875 ± 0.090	0.440 ± 0.032	0.676 ± 0.062	0.791 ± 0.067	0.940 ± 0.077	0.858 ± 0.054	107.60 ± 4.62	104.20 ± 4.97	97.40 ± 8.05	
CCCCCCCCS(=O)(=O)NC(N)=NC(=N)N(C)C [Compound 2]			75.9 ± 5.85	71.5 ± 3.12		0.608 ± 0.038	0.693 ± 0.022	0.676 ± 0.047	0.522 ± 0.030	0.761 ± 0.008	0.652 ± 0.006	0.706 ± 0.007	0.719 ± 0.005	0.731 ± 0.002	0.379 ± 0.032	107.40 ± 6.19	104.00 ± 5.34	107.00 ± 4.00	viability at 24 h, 3 mM [2]: 41.5%; viability at 24 h, 5 mM [2]: 32.1%; IC50 (AoSMC cells): 3.71 ± 0.54 mM
CN(C)C(=N)N=C(N)NS(=O)(=O)C1CCCCC1 [Compound 3]	~24.15%	3.51 ± 0.24			> 76	0.680 ± 0.083	0.837 ± 0.213	0.927 ± 0.212	0.969 ± 0.156	0.714 ± 0.035	0.233 ± 0.039	0.554 ± 0.047	0.616 ± 0.042	0.748 ± 0.061	0.694 ± 0.054	105.60 ± 2.30	103.40 ± 7.23	104.20 ± 8.14	
